Experimental data taken from ChEMBL document CHEMBL1156531, “Designer enediynes generate DNA breaks, interstrand cross-links, or both, with concomitant changes in the regulation of DNA damage responses” (2007).
Activity calls are given as the source filed them. The rule behind the calls is not given here.

Tests used:
[1] = Induction of double-strand break in BamH1-linearized pBR322 plasmid DNA assessed as linear DNA under aerobic condition relative to C-1027; conditions: Bacillus amyloliquefaciens
[2] = system: BSC-1; assay: Induction of double-strand DNA break in SV40-infected african green monkey BSC1 cells assessed as amount of linear DNA after 4 hrs; assay type: cell-based; conditions: Betapolyomavirus macacae
[3] = system: BSC-1; assay: Induction of DNA interstand cross-link in SV40-infected african green monkey BSC1 cells assessed as amount of double-stranded DNA remaining after denaturation after 4 hrs; assay type: cell-based; conditions: Betapolyomavirus macacae
[4] = system: HCT-116; assay: Ratio of IC50 for mock siRNA-treated human HCT116 cells to IC50 for siATR (ataxia telangiectasia mutated and Rad3 related)-treated human HCT116 cells after 3 days; assay type: functional
[5] = system: Bacillus amyloliquefaciens; assay: Induction of interstrand cross-link in BamH1-linearized pBR322 plasmid DNA assessed as amount of double-stranded DNA remaining after denaturation relative to C-1027
[6] = target: T1, Serine/threonine-protein kinase Chk1 (Homo sapiens) (UniProt O14757); assay: Decrease in Chk1-Ser-345 phosphorylation in ataxia telangiectasia mutated and Rad3 related-deficient human HCT116 cells at 3 nM after 1 hr by Western blotting; assay type: cell-based; conditions: HCT-116
T1 sequence (whole entry): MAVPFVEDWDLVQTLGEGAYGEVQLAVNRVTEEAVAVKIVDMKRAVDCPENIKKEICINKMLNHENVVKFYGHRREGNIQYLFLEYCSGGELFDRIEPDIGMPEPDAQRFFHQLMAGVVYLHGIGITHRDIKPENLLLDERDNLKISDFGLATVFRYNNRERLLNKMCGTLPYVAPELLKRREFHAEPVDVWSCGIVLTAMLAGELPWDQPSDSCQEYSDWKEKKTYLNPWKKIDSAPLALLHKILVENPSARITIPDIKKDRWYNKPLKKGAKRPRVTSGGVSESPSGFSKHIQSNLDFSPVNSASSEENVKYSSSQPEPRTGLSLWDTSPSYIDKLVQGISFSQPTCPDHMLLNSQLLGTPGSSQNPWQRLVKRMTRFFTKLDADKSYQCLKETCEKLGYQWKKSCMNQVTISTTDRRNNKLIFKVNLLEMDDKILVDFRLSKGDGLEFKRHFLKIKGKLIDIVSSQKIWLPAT

[7] = system: HCT-116; assay: Induction of DNA interstand cross-link in human HCT116 cells after 4 hrs by comet assay; assay type: cell-based
[8] = system: BSC-1; assay: Induction of double-strand DNA break in SV40-infected african green monkey BSC1 cells assessed as amount of linear DNA at 8 nM after 4 hrs; assay type: cell-based; conditions: Betapolyomavirus macacae
[9] = system: BSC-1; assay: Induction of DNA interstand cross-link in SV40-infected african green monkey BSC1 cells assessed as amount of double-stranded DNA remaining after denaturation at 40 nM after 4 hrs; assay type: cell-based; conditions: Betapolyomavirus macacae
[10] = system: Bacillus amyloliquefaciens; assay: Induction of interstrand cross-link in BamH1-linearized pBR322 plasmid DNA assessed as amount of double-stranded DNA remaining at 130 nM after 4 hrs under anaerobic cell-free condition
[11] = system: HCT-116; assay: Induction of double-strand DNA break in human HCT116 cells after 4 hrs by comet assay; assay type: cell-based
[12] = target: T1, Serine/threonine-protein kinase Chk1 (Homo sapiens); assay: Decrease in Chk1-Ser-345 phosphorylation in ataxia telangiectasia mutated and Rad3 related-deficient human HCT116 cells at 1 nM after 1 hr by Western blotting; assay type: cell-based; conditions: HCT-116
[13] = system: BSC-1; assay: Increase in DNA interstand cross-link in SV40-infected african green monkey BSC1 cells assessed as amount of double-stranded DNA remaining after denaturation at 200 nM after 4 hrs; assay type: cell-based; conditions: Betapolyomavirus macacae
[14] = system: Bacillus amyloliquefaciens; assay: Induction of interstrand cross-link in BamH1-linearized pBR322 plasmid DNA assessed as amount of double-stranded DNA remaining at 13 nM after 4 hrs under anaerobic cell-free condition
[15] = system: BSC-1; assay: Induction of double-strand DNA break in SV40-infected african green monkey BSC1 cells assessed as amount of linear DNA at 10 uM after 4 hrs; assay type: cell-based; conditions: Betapolyomavirus macacae

Activity [1]	Activity [5]	Activity [10]	Activity [14]	SMILES	Activity [2]	Activity [3]	Ratio IC50 [4]	Activity [6]	Activity [7]	Activity [8]	Activity [9]	Activity [11]	Activity [12]	Activity [13]	Activity [15]
0.25%	< 0.003%	–	–	C=C1Oc2cc(OC)cc(C(=O)O[C@H]3COC(=O)C[C@H](N)c4ccc(c(O)c4)O[C@@H]4C#C/C=C/3C#CC3=CC=C[C@@]34O[C@@H]3OC(C)(C)[C@@H](N(C)C)[C@@H](O)[C@H]3O)c2NC1=O	Dose-dependent effect	inactive	1.3	Active	–	–	–	–	–	–	–
0.033%	–	–	–	C=C1Oc2cc(OC)cc(C(=O)O[C@H]3COC(=O)C[C@H](N)c4ccc(c(Cl)c4)O[C@@H]4C#C/C=C/3C#CC3=CC=C[C@@]34O[C@@H]3OC(C)(C)[C@@H](N(C)C)[C@@H](O)[C@H]3O)c2NC1=O	–	–	–	–	–	–	–	–	–	–	–
1%	1%	> 30%	13%	C=C1Oc2cc(OC)cc(C(=O)O[C@H]3COC(=O)C[C@H](N)c4cc(O)c(c(Cl)c4)O[C@@H]4C#C/C=C/3C#CC3=CC=C[C@@]34O[C@@H]3OC(C)(C)[C@@H](N(C)C)[C@@H](O)[C@H]3O)c2NC1=O	–	–	1.1	–	Active	20%	Active	inactive	Active	Active	–
0.02%	1%	–	–	C=C1Oc2cc(O)cc(C(=O)O[C@H]3COC(=O)C[C@H](N)c4cc(O)c(c(Cl)c4)O[C@@H]4C#C/C=C/3C#CC3=CC=C[C@@]34O[C@@H]3OC(C)(C)[C@@H](N(C)C)[C@@H](O)[C@H]3O)c2NC1=O	–	–	2.5	–	Active	–	–	inactive	–	Active	inactive
